Measured values published in patent US8435990B2, “Dihydropyrimidone amides as P2X7 modulators” (Roche Palo Alto LLC, priority 2009, dated 2013).

Target: T1, human P2X7 (Homo sapiens, UniProt Q99572)
T1 construct: 1321N1 cells stably expressing the full length human P2X7 gene (1321N1-hP2X7)
T1 sequence (Q99572 1-595): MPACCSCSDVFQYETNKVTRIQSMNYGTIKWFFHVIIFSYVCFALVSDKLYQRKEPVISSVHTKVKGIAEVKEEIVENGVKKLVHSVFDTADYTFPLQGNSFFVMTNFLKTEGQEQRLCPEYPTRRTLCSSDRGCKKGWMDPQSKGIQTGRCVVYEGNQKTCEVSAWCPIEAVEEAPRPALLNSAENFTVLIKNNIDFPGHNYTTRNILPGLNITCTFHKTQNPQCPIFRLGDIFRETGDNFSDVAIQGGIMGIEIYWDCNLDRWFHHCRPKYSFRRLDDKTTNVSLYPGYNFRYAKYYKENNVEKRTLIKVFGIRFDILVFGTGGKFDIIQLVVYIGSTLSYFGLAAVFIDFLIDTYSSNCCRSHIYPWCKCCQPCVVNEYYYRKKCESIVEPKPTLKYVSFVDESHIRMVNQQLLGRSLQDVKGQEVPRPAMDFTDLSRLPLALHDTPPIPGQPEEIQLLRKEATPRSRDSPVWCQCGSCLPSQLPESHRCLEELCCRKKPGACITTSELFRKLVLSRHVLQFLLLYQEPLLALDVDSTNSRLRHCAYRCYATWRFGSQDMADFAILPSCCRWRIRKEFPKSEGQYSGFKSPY
Experiment: P2X7 modulator pIC50 of Table 1 (assay not given; Intracellular Calcium Flux (FLIPR) Assay assumed)
Assay type: cell-based
Method in brief: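 1321N1 cells expressing human P2X7, fluo-3 loaded, pre-equilibrated 20 min at RT with antagonist; 100 μM BzATP agonist added and calcium fluorescence recorded 5 min on FLIPR. BzATP-evoked maximum normalised to 5 μM ionomycin response. HEK293 rat P2X7 cells used 5 μM BzATP.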

Going from `Cc1cc(F)c(-n2ncccc2=O)cc1NC(=O)C1=CN(C)C(=O)N[C@H]1c1ccc(F)cc1` [Compound 69, (S)-4-(4-Fluoro-phenyl)-1-methyl-2-oxo-1,2,3,4-tetrahydro-pyrimidine-5-carboxylic acid [4-fluoro-2-methyl-5-(6-oxo-6H-pyridazin-1-yl)-phenyl]-amide] to `Cc1cnn(-c2cc(NC(=O)C3=CN(C)C(=O)N[C@H]3c3ccc(F)cc3)c(C)cc2F)c(=O)c1` [Compound 73, (S)-4-(4-Fluoro-phenyl)-1-methyl-2-oxo-1,2,3,4-tetrahydro-pyrimidine-5-carboxylic acid [4-fluoro-2-methyl-5-(4-methyl-6-oxo-6H-pyridazin-1-yl)-phenyl]-amide], the IC50 rises from 19.3 nM to 56.9 nM (2.9-fold). The first is the more potent here.

First: Cc1cc(F)c(-c2cccn(C)c2=O)cc1NC(=O)C1=CN(C)C(=O)N[C@H]1c1ccc(F)cc1 [Compound 70, (S)-4-(4-Fluoro-phenyl)-1-methyl-2-oxo-1,2,3,4-tetrahydro-pyrimidine-5-carboxylic acid [4-fluoro-2-methyl-5-(1-methyl-2-oxo-1,2-dihydro-pyridin-3-yl)-phenyl]-amide]
Second: CN1C=C(C(=O)Nc2cc(-c3ccnn(C)c3=O)ccc2F)[C@H](c2ccc(F)cc2)NC1=O [Compound 72, (S)-4-(4-Fluoro-phenyl)-1-methyl-2-oxo-1,2,3,4-tetrahydro-pyrimidine-5-carboxylic acid [2-fluoro-5-(2-methyl-3-oxo-2,3-dihydro-pyridazin-4-yl)-phenyl]-amide]
The IC50 of the first is 2.1-fold higher: 33.1 nM for the first, 15.7 nM for the second. The second is the more potent here.

Going from `Cc1ccc(=O)n(-c2ccc(C)c(NC(=O)C3=CN(C)C(=O)N[C@H]3c3ccc(F)cc3)c2)c1` [Compound 71, (S)-4-(4-Fluoro-phenyl)-1-methyl-2-oxo-1,2,3,4-tetrahydro-pyrimidine-5-carboxylic acid [2-methyl-5-(5-methyl-2-oxo-2H-pyridin-1-yl)-phenyl]-amide] to `CN1C=C(C(=O)Nc2cc(-n3ncccc3=O)ccc2F)[C@H](c2ccc(F)cc2)NC1=O` [Compound 74, (S)-4-(4-Fluoro-phenyl)-1-methyl-2-oxo-1,2,3,4-tetrahydro-pyrimidine-5-carboxylic acid [2-fluoro-5-(6-oxo-6H-pyridazin-1-yl)-phenyl]-amide], the IC50 rises from 43.2 nM to 101 nM (2.3-fold).
